Assay type in all cases: cell-based
One assay concerns RSV strain A2. The experiment in a line: microbe, parasite or virus in culture. As to conditions: Table 3, HEp-2 cells, RSV A2, 4 days, read-out: RSV HEp-2 EC50. The procedure, abridged:
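Cytopathic-effect protection assay: HEp-2 cells (50,000/mL) infected with pre-titered RSV A2 onto 3-fold serial compound dilutions, incubated 4 days at 37° C. Cell viability read by CellTiter-Glo luminescence; percent inhibition derived against 0% and 100% virus-inhibition controls.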

Another assay deals with HRV16. Put plainly: HRV16 HeLa EC50 (cytopathic effect in H1-HeLa cells). The procedure, abridged: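 Read-out is luminescent cell viability (CellTiter-Glo) after 96 h of infection at 33 °C, scaled between uninfected and infected-untreated wells. Before infection with titrated virus, compounds went onto H1-HeLa cells as triplicate 3-fold dilution series.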
A general note: Cytopathic effects are the visible damage that an infection or toxin causes in cultured cells.

The next assay has as its system DENV2 replicon. Put plainly: DENV-2 Huh-7 Rep EC50 (replicon luminescence). The procedure, abridged: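 EC50 derived from luminescence dose-response, normalised to DMSO-only 0% inhibition wells, after 1.5 h with EnduRen substrate. Compounds were first exposed for 48 h at 37° C to DENV2 replicon Huh-7 cells (5,000/well).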
For a further assay, the system named is RSV A2. The experiment in a line: RSV NHBE EC50 (RSV A2 antiviral assay in NHBE cells). The note with it: Table 3, NHBE cells, RSV A2, 4 days, read-out: RSV NHBE EC50. In a few lines: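 Read-out: CellTiter-Glo luminescence of cell viability after 4 days at 37° C. Primary NHBE cells, 7,500/well, 3-fold compound dilutions, 0.05% DMSO, infected with RSV A2 (1×10^4.5 TCID/mL).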

[1] abbreviates: human respiratory syncytial virus, HEp-2, 96 h.
Setting [2] is: 96 h, Table 3; H1-HeLa cells, 96 h; read-out: HRV16 HeLa EC50.
Setting [3] is: Dengue virus, DENV2, Huh-7, 48 h, read-out: DENV-2 REP Huh7 EC50, Table 3, Huh-7 DENV2 replicon cells, 48 hours.
The mark [4] stands for this setting: human respiratory syncytial virus, NHBE, 96 h.
Where [5] appears, read: Dengue virus, DENV2, Huh-7, 48 h, read-out: DENV-2 REP Huh7 EC50.

Consider 14 compounds from patent US12264173B2 (GILEAD SCIENCES, INC., priority 2020, dated 2025).

For orientation: EC50 means the concentration giving half of the maximal effect.

Read-outs that look alike come from different tables or passages of the source.

`CC(=O)O[C@H]1[C@H](c2ccc3c(N)ncnn23)O[C@](C#N)(CO[P@@](=O)(N[C@@H](C)C(=O)OCC2CCN(CC(F)(F)F)CC2)Oc2ccccc2)[C@H]1OC(C)=O` [Example 119]: the EC50 with RSV strain A2 was 0.541 µM; in the assay with HRV16 (Table 3; H1-HeLa cells, 96 h; read-out: HRV16 HeLa EC50), 1.05 µM; in the assay on DENV2 replicon (Table 3, Huh-7 DENV2 replicon cells, 48 hours, read-out: DENV-2 REP Huh7 EC50) it was 71.4 µM; in the assay with RSV A2 it was 0.027 µM.
On to `CC(=O)O[C@H]1[C@H](c2ccc3c(N)ncnn23)O[C@](C#N)(COP(=O)(N[C@@H](C)C(=O)OC2CCCCC2)N[C@@H](C)C(=O)OC2CCCCC2)[C@H]1OC(C)=O` [Example 121, (2R,3S,4S,5S)-5-(4-Aminopyrrolo[2,1-f][1,2,4]triazin-7-yl)-2-cyano-2-((((((S)-1-(cyclohexyloxy)-1-oxopropan-2-yl)amino)(((S)-1-cyclohexyloxy-1-oxopropan-2-yl)amino)phosphoryl)oxy)methyl)tetrahydrofuran-3,4-diyl diacetate], for which the EC50 in the assay on RSV strain A2 (setting [1]) was 5.45 µM; in the assay with HRV16 (setting [2]), 6.66 µM; in the assay with DENV2 replicon (setting [3]), 44.4 µM; in the assay on RSV A2 (setting [4]) it was 0.498 µM.
In the case of `CC(C)[C@H](N)C(=O)O[C@H]1[C@H](c2ccc3c(N)ncnn23)O[C@](C#N)(CO[P@@](=O)(N[C@@H](C)C(=O)OC2CCCCC2)Oc2ccccc2)[C@H]1OC(=O)[C@@H](N)C(C)C` [Example 122, (2R,3S,4S,5S)-5-(4-aminopyrrolo[2,1-f][1,2,4]triazin-7-yl)-2-cyano-2-((((S)-(((S)-1-(cyclohexyloxy)-1-oxopropan-2-yl)amino)(phenoxy)phosphoryl)oxy)methyl)tetrahydrofuran-3,4-diyl (2S,2'S)-bis(2-amino-3-methylbutanoate)], the EC50 in the assay with RSV strain A2 (setting [1]) is 0.079 µM; with HRV16 (setting [2]), 0.301 µM; in the assay with DENV2 replicon (setting [5]), 5.54 µM; in the assay on RSV A2 (setting [4]), 0.09 µM.
Turning to `CCC(=O)O[C@H]1[C@H](c2ccc3c(N)ncnn23)O[C@](C#N)(COP(=O)(N[C@@H](C)C(=O)OC(C)C)N[C@@H](C)C(=O)OC(C)C)[C@H]1OC(=O)CC` [Example 123, ((2R,3S,4R,5S)-5-(4-aminopyrrolo[2,1-f][1,2,4]triazin-7-yl)-2-cyano-3,4-dipropionatetetrahydrofuran-2-yl)methyl bis-isopropyl L-alaninate phosphate], the EC50 in the assay with RSV strain A2 (setting [1]) was 2.28 µM; in the assay on HRV16 (setting [2]), 7.57 µM; in the assay with DENV2 replicon (setting [3]) it was above 50 µM; in the assay on RSV A2 (setting [4]) it was 0.175 µM.
As to `CCOC(=O)[C@H](C)NP(=O)(N[C@@H](C)C(=O)OCC)OC[C@@]1(C#N)O[C@@H](c2ccc3c(N)ncnn23)[C@H](OC(=O)CC)[C@@H]1OC(=O)CC` [Example 124, ((2R,3S,4R,5S)-5-(4-aminopyrrolo[2,1-f][1,2,4]triazin-7-yl)-2-cyano-3,4-dipropionatetetrahydrofuran-2-yl)methyl bis-ethyl L-alaninate phosphate], the EC50 with RSV strain A2 (setting [1]) was 2.1 µM; in the assay with HRV16 (setting [2]), 8.39 µM; in the assay on DENV2 replicon (setting [3]), above 50 µM; in the assay on RSV A2 (setting [4]), 0.15 µM.
As for `CC(=O)O[C@H]1[C@H](c2ccc3c(N)ncnn23)O[C@](C#N)(COP(=O)(N[C@@H](C)C(=O)OCc2ccccc2)Oc2ccccc2)[C@H]1OC(C)=O` (stereo partly drawn) [Example 126, (2R,3S,4S,5S)-5-(4-aminopyrrolo[2,1-f][1,2,4]triazin-7-yl)-2-((((((S)-1-(benzyloxy)-1-oxopropan-2-yl)amino)(phenoxy)phosphoryl)oxy)methyl)-2-cyanotetrahydrofuran-3,4-diyl diacetate], the EC50 in the assay on RSV strain A2 (setting [1]) stood at 0.121 µM; in the assay on HRV16 (setting [2]), 0.514 µM; in the assay on DENV2 replicon (setting [5]), 16 µM; in the assay on RSV A2 (setting [4]) it was 0.045 µM.
As to `COC(=O)[C@H](C)NP(=O)(N[C@@H](C)C(=O)OC)OC[C@@]1(C#N)O[C@@H](c2ccc3c(N)ncnn23)[C@H](OC(C)=O)[C@@H]1OC(C)=O` [Example 127], the EC50 in the assay with RSV strain A2 (setting [1]) is 8.06 µM; in the assay on HRV16 (setting [2]), above 50 µM; in the assay with DENV2 replicon (setting [3]), above 50 µM; in the assay with RSV A2 (setting [4]), 3.36 µM.
With `COC(=O)[C@H](C)NP(=O)(N[C@@H](C)C(=O)OC)OC[C@@]1(C#N)O[C@@H](c2ccc3c(NC(C)=O)ncnn23)[C@H](OC(C)=O)[C@@H]1OC(C)=O` [Example 128], the EC50 in the assay on RSV strain A2 (setting [1]) is 18.8 µM; in the assay on HRV16 (setting [2]) it was above 50 µM; with DENV2 replicon (setting [3]), above 50 µM; in the assay on RSV A2 (setting [4]), above 4.14 µM.
In the case of `COC(=O)[C@H](C)NP(=O)(OC[C@@]1(C#N)O[C@@H](c2ccc3c(N)ncnn23)[C@H](OC(C)=O)[C@@H]1OC(C)=O)Oc1ccccc1` (stereo partly drawn) [Example 129, (2R,3S,4S,5S)-5-(4-aminopyrrolo[2,1-f][1,2,4]triazin-7-yl)-2-cyano-2-((((((S)-1-methoxy-1-oxopropan-2-yl)amino)(phenoxy)phosphoryl)oxy)methyl)tetrahydrofuran-3,4-diyl diacetate], the EC50 with RSV strain A2 (setting [1]) came to 0.154 µM; in the assay on HRV16 (setting [2]), 1.11 µM; with DENV2 replicon (setting [5]) it was 15.5 µM; in the assay with RSV A2 (setting [4]), 0.077 µM.
On the same counts, the results for `COC(=O)[C@H](C)NP(=O)(OC[C@@]1(C#N)O[C@@H](c2ccc3c(NC(C)=O)ncnn23)[C@H](OC(C)=O)[C@@H]1OC(C)=O)Oc1ccccc1` (stereo partly drawn) [Example 132, (2R,3S,4S,5S)-5-(4-acetamidopyrrolo[2,1-f][1,2,4]triazin-7-yl)-2-cyano-2-((((((S)-1-methoxy-1-oxopropan-2-yl)amino)(phenoxy)phosphoryl)oxy)methyl) tetrahydrofuran-3,4-diyl diacetate] are 0.434 µM, 3.48 µM, 29.4 µM and 0.145 µM.
For the compound `CC(=O)O[C@H]1[C@H](c2ccc3c(N)ncnn23)O[C@](C#N)(COP(=O)(N[C@@H](C)C(=O)OC(C)C)N[C@@H](C)C(=O)OC(C)C)[C@H]1OC(C)=O` [Example 133, ((2R,3S,4R,5S)-5-(4-aminopyrrolo[2,1-f][1,2,4]triazin-7-yl)-2-cyano-3,4-diacetatetetrahydrofuran-2-yl)methyl bis-isopropyl L-alaninate phosphate], the EC50 with RSV strain A2 (setting [1]) was 18.1 µM; with HRV16 (setting [2]), above 48.9 µM; in the assay with DENV2 replicon (setting [3]), above 50 µM; in the assay with RSV A2 (setting [4]), above 4.07 µM.
On the same counts, the results for `CCOC(=O)[C@H](C)NP(=O)(N[C@@H](C)C(=O)OCC)OC[C@@]1(C#N)O[C@@H](c2ccc3c(N)ncnn23)[C@H](OC(C)=O)[C@@H]1OC(C)=O` [Example 134, ((2R,3S,4R,5S)-5-(4-aminopyrrolo[2,1-f][1,2,4]triazin-7-yl)-2-cyano-3,4-diacetatetetrahydrofuran-2-yl)methyl bis-ethyl L-alaninate phosphate] are 7.34 µM, above 50 µM, above 50 µM and 1.59 µM.
In the case of `CCC(=O)O[C@H]1[C@H](c2ccc3c(N)ncnn23)O[C@](C#N)(COP(=O)(N[C@@H](C)C(=O)OC2CCN(CC)CC2(F)F)Oc2ccccc2)[C@H]1OC(=O)CC` (stereo partly drawn) [Example 135, (2R,3S,4S,5S)-5-(4-Aminopyrrolo[2,1-f][1,2,4]triazin-7-yl)-2-cyano-2-((((((2S)-1-((1-ethyl-3,3-difluoropiperidin-4-yl)oxy)-1-oxopropan-2-yl)amino)(phenoxy)phosphoryl)oxy)methyl)tetrahydrofuran-3,4-diyl dipropionate], the EC50 is 0.738 µM in the assay with RSV strain A2 (setting [1]), 1.08 µM in the assay on HRV16 (setting [2]), 30.6 µM in the assay on DENV2 replicon (setting [5]) and 0.033 µM with RSV A2 (setting [4]).
With `CC(C)C(=O)O[C@H]1[C@H](c2ccc3c(N)ncnn23)O[C@](C#N)(COP(=O)(N[C@@H](C)C(=O)O[C@H]2CC[C@H](N)CC2)Oc2ccccc2)[C@H]1OC(=O)C(C)C` (stereo partly drawn) [Example 136, (2R,3S,4S,5S)-2-((((((S)-1-(((1r,4S)-4-aminocyclohexyl)oxy)-1-oxopropan-2-yl)amino)(phenoxy)phosphoryl)oxy)methyl)-5-(4-aminopyrrolo[2,1-f][1,2,4]triazin-7-yl)-2-cyanotetrahydrofuran-3,4-diyl bis(2-methylpropanoate)], the EC50 with RSV strain A2 (setting [1]) was 2.95 µM; in the assay on HRV16 (setting [2]), 15 µM; with DENV2 replicon (setting [5]), 38.2 µM; in the assay on RSV A2 (setting [4]), 0.244 µM.
